From publication PMC10714399, “Open Source Antibiotics: Simple Diarylimidazoles Are Potent against Methicillin-Resistant Staphylococcus aureus” (ACS Infectious Diseases, 2023)
In brackets after ≈: the same amount, converted by molar mass. Like-named read-outs stand apart in the source and are kept apart here.

Experiments:
[1] = system: Staphylococcus aureus NCTC 13373 (mecA-positive; methicillin-resistant); test: In vitro antibacterial activity, MIC (UCL School of Pharmacy assay), MRSA; type: cell-based; conditions: for MIC: Staphylococcus aureus
Method: (§1) Staphylococcus aureus NCTC 13373 (mecA-positive; methicillin-resistant, NCTC 13373) was supplied by the National Collection of Type Cultures (NCTC), Public Health England, United Kingdom. Other organisms, S. aureus ATCC 25923 (methicillin-susceptible) and Enterococcus faecalis ATCC 51299 (vanA-positive; vancomycin-resistant), were obtained from the American Type Culture Collection (ATCC) via LGC Standards, UK. A suspension of each organism was prepared from an overnight plate culture (tryptone soya agar) in phosphate-buffered saline (PBS) and adjusted to an absorbance reading at 600 nm of 0.1, which is approximately equivalent to 1 × 10^8 colony-forming units (CFU) per mL. The cultures were further diluted 1:100 in isosensitest broth (Oxoid, United Kingdom) before 100 μL was used to inoculate each well of a 96-well plate that contained diluted samples of the OSA series. Compounds were evaluated over a 2-fold dilution range from 32 to 0.03 μg/mL. Stocks of the samples were prepared in 100% DMSO at […] before being diluted in isosenstitest broth. The highest concentration of DMSO present was 2%, which has been previously shown not to inhibit the growth of the microorganisms (data not shown). […] Vancomycin was used as a quality control compound.

[2] = system: Enterococcus faecalis ATCC 51299 (vanA-positive; vancomycin-resistant); test: In vitro antibacterial activity, MIC (UCL), VRE; type: cell-based
Method: as §1

[3] = system: S. aureus ATCC 25923 (methicillin-susceptible); test: In vitro antibacterial activity, MIC (UCL), MSSA; type: cell-based, Staphylococcus aureus; conditions: for MIC: Staphylococcus aureus, read-out: MSSA MIC
Method: as §1

Row | MIC ([1]; UCL, read-out: MRSA MIC (UCL)) | MIC ([2]; read-out: VRE MIC (UCL)) | MRSA MIC [1] | Structure (SMILES) | other results
1 | – | – | > 32 µg/mL | Cc1ccc(-c2c(-c3ccccn3)nc3cc(C#N)ccn23)cc1 [compound 1013] | MSSA MIC [3]: > 32 µg/mL
2 | – | – | > 32 µg/mL | Cc1ccc(-c2c(-c3ccccn3)nc3cc(N4CCNCC4)ccn23)cc1 [compound 1014] | MSSA MIC [3]: > 32 µg/mL
3 | – | – | > 32 µg/mL | Cc1ccc(-c2c(-c3ccccn3)nc3cc(C(N)=O)ccn23)cc1 [compound 1015] | MSSA MIC [3]: > 32 µg/mL
4 | – | – | 8 µg/mL | CC(C)CN(c1ccc(F)cc1)c1c(-c2ccccn2)nc2cc(F)ccn12 [compound 1023] | MSSA MIC [3]: 4 µg/mL
5 | – | – | 8 µg/mL | CC(C)CN(c1ccc(F)cc1)c1c(-c2ccccn2)nc2ccc(F)cn12 [compound 1024] | MSSA MIC [3]: 8 µg/mL
6 | – | – | > 32 µg/mL | COc1cccc(-c2nc3ccccn3c2N(CC(C)C)c2ccc(F)cc2)n1 [compound 1025] | MSSA MIC [3]: > 32 µg/mL
7 | – | – | > 32 µg/mL | CC(C)CN(c1ccc(F)cc1)c1c(-c2ccccn2)nc2ccc(S(C)(=O)=O)cn12 [compound 1037] | MSSA MIC [3]: > 32 µg/mL
8 | – | – | > 32 µg/mL | N#Cc1ccc(-c2nc(-c3ccccn3)c[nH]2)cc1 [compound 1102] | MSSA MIC [3]: > 32 µg/mL
9 | – | – | > 32 µg/mL | N#Cc1ccc(-c2c(-c3ccccn3)nc3cccnn23)cc1 [compound 1103] | MSSA MIC [3]: > 32 µg/mL
10 | – | – | > 32 µg/mL | N#Cc1ccc(-c2c(-c3ccccn3)nc3ccccn23)cc1 [compound 1104] | MSSA MIC [3]: > 32 µg/mL
11 | – | – | > 32 µg/mL | N#Cc1ccc(-c2c(-c3ccccn3)nc3ncccn23)cc1 [compound 1105] | MSSA MIC [3]: > 32 µg/mL
12 | – | – | > 32 µg/mL | N#Cc1ccc(-c2c(-c3ccccn3)nc3cnccn23)cc1 [compound 1106] | MSSA MIC [3]: > 32 µg/mL
13 | – | – | > 32 µg/mL | N#Cc1ccc(-c2c(-c3ncccn3)nc3ccccn23)cc1 [compound 1107] | MSSA MIC [3]: > 32 µg/mL

More lines, now with the values behind:

Row | Structure (SMILES) | MIC ([1]; UCL, read-out: MRSA MIC (UCL)) | MIC ([2]; read-out: VRE MIC (UCL)) | MRSA MIC [1] | other results
14 | COc1ccn2c(Nc3ccc(F)cn3)c(-c3ccccn3)nc2c1 [OSA_000839] | 16 µg/mL (≈ 47.7 µM) | > 32 µg/mL | – | –
15 | Cc1ccn2c(NC3CCCC3)c(-c3ccc(N(C)C)cc3)nc2c1 [OSA_000840] | > 32 µg/mL | > 32 µg/mL | – | –
16 | Cc1ccc2nc(-c3ccccn3)c(Nc3ccc4c(c3)OCCO4)n2c1 [OSA_000841] | 8 µg/mL (≈ 22.3 µM) | 16 µg/mL (≈ 44.6 µM) | – | –
17 | COc1ccn2c(Nc3cccc(F)c3)c(-c3cscn3)nc2c1 [OSA_000843] | > 32 µg/mL | > 32 µg/mL | – | –
18 | CN(C)Cc1ccc2nc(-c3ccccn3)c(Nc3cccc(F)c3)n2c1 [OSA_000844] | > 32 µg/mL | > 32 µg/mL | – | –
19 | c1ccn2c(NC3CCCC3)c(-c3nccs3)nc2c1 [OSA_000845] | > 32 µg/mL | > 32 µg/mL | – | –
20 | Cc1ccn2c(Nc3ccc(F)cc3)c(-c3ccc(N(C)C)cc3)nc2c1 [OSA_000846] | > 32 µg/mL | > 32 µg/mL | – | –
21 | Cn1ccnc1-c1nc2ccccn2c1Nc1ccc(F)cc1 [OSA_000847] | > 32 µg/mL | > 32 µg/mL | – | –
22 | COc1ccn2c(Nc3cccc(F)c3)c(-c3cn(C)cn3)nc2c1 [OSA_000848] | > 32 µg/mL | > 32 µg/mL | – | –
23 | COc1ccc(-c2nc3ccc(C)cn3c2NCc2ccco2)cc1OC [OSA_000849] | > 32 µg/mL | > 32 µg/mL | – | –
24 | c1ccc(-c2nc3ccccn3c2N2CCOCC2)nc1 [OSA_000850] | > 32 µg/mL | > 32 µg/mL | – | –
25 | COCc1ccc2nc(-c3ccccn3)c(Nc3cccc(F)c3)n2c1 [OSA_000852] | > 32 µg/mL | > 32 µg/mL | – | –
26 | COc1ccn2c(NCc3cn(C)cn3)c(-c3ccccn3)nc2c1 [OSA_000853] | > 32 µg/mL | > 32 µg/mL | – | –
27 | COc1ccn2c(Nc3ccnc(C)c3)c(-c3ccccn3)nc2c1 [OSA_000854] | > 32 µg/mL | > 32 µg/mL | – | –
28 | c1ccc(-c2nc3ncccn3c2-c2ccc3occc3c2)nc1 [OSA_000863] | > 32 µg/mL | > 32 µg/mL | – | –
29 | COc1ccn2c(Nc3ccc4c(c3)OCCO4)c(-c3c[nH]cn3)nc2c1 [OSA_000866] | > 32 µg/mL | > 32 µg/mL | – | –
30 | COc1ccc2nc(-c3c[nH]cn3)c(Nc3ccc4c(c3)OCCO4)n2c1 [OSA_000867] | > 32 µg/mL | > 32 µg/mL | – | –
31 | c1ncc(-c2nc3n(c2-c2ccc4occc4c2)CCC3)cn1 [OSA_000874] | > 32 µg/mL | > 32 µg/mL | – | –
32 | CC(=O)c1ccc(-c2c(-c3ccccn3)nc3n2CCC3)cc1 [OSA_000973] | > 32 µg/mL | > 32 µg/mL | – | –
33 | Cc1ccccc1-c1c(-c2ccccn2)nc2n1CCC2 [OSA_000977] | 32 µg/mL (≈ 116 µM) | 32 µg/mL (≈ 116 µM) | – | –
34 | COc1ccn2c(Nc3ccc(F)cn3)c(-c3ccccn3)nc2c1.O=CO [compound 839] | – | – | 16 µg/mL | VRE MIC [2]: > 32 µg/mL

Row | Structure (SMILES) | MIC ([1]; UCL, read-out: MRSA MIC (UCL)) | MIC ([2]; read-out: VRE MIC (UCL)) | MRSA MIC [1] | other results
35 | Cc1ccn2c(NC3CCCC3)c(-c3ccc(N(C)C)cc3)nc2c1 [compound 840] | – | – | > 32 µg/mL | VRE MIC [2]: > 32 µg/mL
36 | Cc1ccc2nc(-c3ccccn3)c(Nc3ccc4c(c3)OCCO4)n2c1 [compound 841] | – | – | 8 µg/mL | VRE MIC [2]: 16 µg/mL
37 | COc1ccn2c(Nc3cccc(F)c3)c(-c3cscn3)nc2c1.O=CO [compound 843] | – | – | > 32 µg/mL | VRE MIC [2]: > 32 µg/mL
38 | CN(C)Cc1ccc2nc(-c3ccccn3)c(Nc3cccc(F)c3)n2c1 [compound 844] | – | – | > 32 µg/mL | VRE MIC [2]: > 32 µg/mL
39 | c1ccn2c(NC3CCCC3)c(-c3nccs3)nc2c1 [compound 845] | – | – | > 32 µg/mL | VRE MIC [2]: > 32 µg/mL
40 | Cc1ccn2c(Nc3ccc(F)cc3)c(-c3ccc(N(C)C)cc3)nc2c1 [compound 846] | – | – | > 32 µg/mL | VRE MIC [2]: > 32 µg/mL
41 | Cn1ccnc1-c1nc2ccccn2c1Nc1ccc(F)cc1 [compound 847] | – | – | – | MIC ([1]; read-out: MRSA MIC): > 32 µg/mL; MIC ([2]; read-out: VRE MIC): > 32 µg/mL
42 | COc1ccn2c(Nc3cccc(F)c3)c(-c3cn(C)cn3)nc2c1 [compound 848] | – | – | > 32 µg/mL | VRE MIC [2]: > 32 µg/mL
43 | COc1ccc(-c2nc3ccc(C)cn3c2NCc2ccco2)cc1OC.Cl [compound 849] | – | – | > 32 µg/mL | VRE MIC [2]: > 32 µg/mL
44 | c1ccc(-c2nc3ccccn3c2N2CCOCC2)nc1 [compound 850] | – | – | > 32 µg/mL | VRE MIC [2]: > 32 µg/mL
45 | COCc1ccc2nc(-c3ccccn3)c(Nc3cccc(F)c3)n2c1 [compound 852] | – | – | > 32 µg/mL | VRE MIC [2]: > 32 µg/mL
46 | CN1CCN(c2ccc(-c3c(-c4ccccn4)nc4ccccn34)cc2)CC1 [compound 1012] | – | – | – | MIC ([1]; read-out: MRSA MIC): > 32 µg/mL; MIC [3]: > 32 µg/mL
47 | N#Cc1ccc(C(=O)Nc2c(-c3ccccn3)nc3ccccn23)cc1 [compound 1016] | – | – | – | MIC ([1]; read-out: MRSA MIC): > 32 µg/mL; MIC [3]: > 32 µg/mL
48 | Cc1ccc(C(=O)Nc2c(-c3ccccn3)nc3ccccn23)cc1 [compound 1017] | – | – | – | MIC ([1]; read-out: MRSA MIC): > 32 µg/mL; MIC [3]: > 32 µg/mL
49 | COc1ccc(-c2nc3ccccn3c2Nc2ccc(F)cc2)nc1 [compound 1022] | – | – | – | MIC ([1]; read-out: MRSA MIC): 8 µg/mL (≈ 23.9 µM); MIC [3]: 8 µg/mL (≈ 23.9 µM)
50 | CC(C)CN(c1ccc(F)cc1)c1c(-c2ccccn2)nc2cnccn12 [compound 1035] | – | – | – | MIC ([1]; read-out: MRSA MIC): > 32 µg/mL; MIC [3]: > 32 µg/mL
51 | CC(C)CN(c1ccc(F)cc1)c1c(-c2ccccn2)nc2cccnn12 [compound 1036] | – | – | – | MIC ([1]; read-out: MRSA MIC): 32 µg/mL (≈ 88.5 µM); MIC [3]: 32 µg/mL (≈ 88.5 µM)
52 | CC(C)CN(c1ccc(F)cc1)c1c(-c2ccccn2)nc2ncccn12 [compound 1038] | – | – | – | MIC ([1]; read-out: MRSA MIC): 6 µg/mL (≈ 16.6 µM); MIC [3]: 8 µg/mL (≈ 22.1 µM)
53 | CC(C)CN(c1ccc(F)cc1)c1c(-c2ccccn2)nc2ccncn12 [compound 1039] | – | – | – | MIC ([1]; read-out: MRSA MIC): > 32 µg/mL; MIC [3]: > 32 µg/mL
54 | CC(C)CN(Cc1c(-c2ccccn2)nc2ccccn12)c1ccc(F)cc1 [compound 1040] | – | – | – | MIC ([1]; read-out: MRSA MIC): 32 µg/mL (≈ 85.5 µM); MIC [3]: > 32 µg/mL
